According to patent US6642003B2, “Human glucose-dependent insulin-secreting cell line” (Cedars-Sinai Medical Center, priority 2001, dated 2003):

How the values were obtained:
[1] = system: PANC-1 cells; test: Insulin release into culture medium (RIA), parental PANC-1 cells; type: cell-based, human
Experimental: Rat (ARIP) and human (PANC-1) ductal cell lines were respectively a gift from Dr. J. M. Egan (National Institute on Aging, Baltimore, Md.) or purchased from ATCC (American Type Culture Collection; Manassas, Va.). ARIP cells were cultured in F12 medium (Gibco-BRL, Gaithersburg; Md.) containing 100 μg/ml penicillin, 50 μg/ml streptomycin and 10% fetal calf serum (FCS; Gibco-BRL) at 37° C. under a humidified condition of 95% air and 5% CO2. PANC-1 cells were cultured in DMEM medium supplemented with antibiotics and FCS, as indicated for F12 medium. […]
PANC-1 (parental, IDX-1-transfected, and neomycin-transfected) cells and ARIP (only parental) cells were plated at density of 10^6 cells/well in a 6 well plate. […] Glucose-dependent insulin secretion was evaluated by culturing the cells in the presence of a determined concentration of GLP-1 (10 nM for 72 h) with increasing concentration of glucose in the culture medium ([…]). Insulin released into the medium was measured by RIA (Linco Research Inc.; St. Charles, Mass.). […]
Total cellular protein content was measured by utilizing the Bradford method (Bio-Rad; Richmond, Calif.). The amount of proteins measured was used as a correction factor for determining the relative amount of medium to be assayed for each individual RIA for insulin.

[2] = system: ARIP cells; test: Immunocytochemistry for insulin, ARIP cells; type: cell-based, rat; conditions: GLP-1 10 nM, 72 h
Experimental: (§1) Cells were cultured on monocoated chamber slides (Nalge Nunc International; Naperville, Ill.) in the presence of GLP-1 (10 nM), or vehicle, for 72 h.
For the detection of insulin, cells were washed and fixed with 3% paraformaldehyde for 4 h, at room temperature in PBS, solubilized with 0.1% (vol/vol) Triton X-100 in PBS for 5 min. Cells were then incubated sequentially with an anti-insulin antibody and a secondary antibody, as described by the manufacturer (Biomeda Corp.; Foster City, Calif.). The cells were examined using a Ziess Axiophoto microscope (New York, N.Y.).

[3] = system: PANC-1/IDX-1 cells; test: Immunofluorescence for IDX-1, PANC-1/IDX-1 cells; type: cell-based, human
Experimental: PANC-1 cells were transfected with a pcDNA3 construct (Invitrogen; Carlsbad, Calif.) harboring the wild-type full-length IDX-1 cDNA using LipoTAXI (Catalog N. 204110; Mammalian Transfection Kit, Stratagene; La Jolla, Calif.). Control cells were transfected with the vector alone. The selection of positive (i.e. transfected) cells was carried out by culturing the cells in the presence of 400 μg/ml of G418 sulfate (GN-04, Omega; Tarzana, Calif.).
as §1
For the detection of IDX-1, slightly different conditions were used. Briefly: the concentration of paraformaldehyde was decreased to 2%, and the concentration of Triton to permeabilize the cells was raised to 0.2% Triton-X-100. Cells were then washed with 0.01 M PBS three times for 3-5 min, and non-specific binding was inhibited by using 5% chick serum in 0.01 M PBS, at room temperature for 60 min in a humid chamber. […] The percentage of IDX-1 containing cells was evaluated by counting the number of IDX-1 “positive” cells divided by the total number of cells identified by nuclear staining.

Q: What does the source list for glucagon-like peptide-1 [GLP-1]?
A: insulin secretion in response to GLP-1 ([1]; parental PANC-1, 12 mM glucose, various GLP-1 concentrations): did not secrete insulin; insulin secretory response with increasing glucose ([1]; wild-type PANC-1, GLP-1 10 nM for 72 h, data not shown): No insulin secretory response; insulin immunostaining [2]: positive immunoreactivity for insulin; effect on expression level of IDX-1 ([3]; GLP-1 10 nM for 72 h): further increase; cells expressing IDX-1 ([3]; GLP-1 or vehicle, 400 cells counted): ~100%
